Results as given in patent US11147272B2, “Pyridone compounds and agricultural and horticultural fungicides comprising the same as active ingredients” (MITSUI CHEMICALS AGRO, INC., priority 2017, dated 2021).

Key:
Botrytis cinerea = assay: Test Example B: Gray mold on tomato; details: Gray mold on tomato; control value class
Protocol: Seeds of a test plant (tomato variety: Oogata Fukuju) were planted and cultivated until three to five first leaves (true leaves) appeared. In the test, the inventive compounds were dissolved into dimethyl sulfoxide-methanol mixture solution (volume ratio: 9/1), and the resultant solutions were diluted with well water to a concentration of 250 ppm to obtain the drug solutions. The drug solutions were sprayed to the test plant (2.5 ml/pot). After the drug solutions dried, a conidial suspension (4-8×10^5 conidia/ml) of Botrytis cinerea was inoculated to the plant by spraying. After the inoculation, the plant was kept in a mist chamber at room temperature of 20 to 23° C. for about 48 hours to promote the onset of disease. The degrees of disease development were investigated 2 to 3 days after the inoculation, and the effectiveness of the drug solutions was evaluated.
(§1) In Test Examples described above, the degrees of disease development were evaluated in increments of 0.05 from 0 (as no incidence of disease) to 3 (as the degree of disease development in an untreated plant group). Further, control values were calculated using the following equation based on the degree of disease development.
(§2) n=Degree of disease development in each treated group
In the table, H: more than 50% control value, L: 50% or less control value, and nt: not tested.

[1] = system: Colletotrichum orbiculare; assay: Test Example H: Anthracnose on cucumber; details: Anthracnose on cucumber; 250 ppm spray, 6 to 10 days after inoculation
Magnaporthe grisea = assay: whole plant or invertebrate; assay type: in vivo; details: Blast on rice; control value class
Plasmopara viticola = assay: Test Example G: Downy mildew on vine; details: Downy mildew on vine; 250 ppm spray, 7 to 10 days after inoculation
[2] = system: Blumeria graminis f. sp. hordei; assay: Test Example D: Powdery mildew on barley; details: Powdery mildew on barley; control value class
Protocol: Seeds of a test plant (barley variety: Akashinriki) were planted and cultivated until the first leaves appeared. In the test, the inventive compounds were dissolved into dimethyl sulfoxide-methanol mixture solution (volume ratio: 9/1), and the resultant solutions were diluted with well water to a concentration of 250 ppm to obtain the drug solutions. The drug solutions were sprayed to the test plant (2.5 ml/pot). After the drug solutions dried, conidia of Blumeria graminis f. sp. hordei were inoculated to the plant by shaking off. The degrees of disease development were investigated 6 to 10 days after the inoculation, and the effectiveness of the drug solutions was evaluated.
as §1, §2

Puccinia recondita = assay: Test Example E: Brown rust on wheat; assay type: in vivo; details: Brown rust on wheat; control value class
Phytophthora infestans = assay: whole plant or invertebrate; assay type: in vivo; details: Late blight on tomato; control value class
Alternaia brassicicola = assay: Test Example C: Alternaria sooty spot on cabbage; assay type: in vivo; details: Alternaria sooty spot on cabbage; control value class
From the text: Seeds of a test plant (cabbage variety: Shikidori) were planted and cultivated until the cotyledons extended.
<Control Value> Control value=100{1−(n/3)}

For CCn1c(-c2ccc(F)cc2Cl)c(C=C(Br)Br)cc(Cl)c1=O [compound 301], the “Test B control value” (Botrytis cinerea) was “H (more than 50% control value)”, the “Test H control value” [1] was “H (more than 50% control value)” and the “Test A control value” (Magnaporthe grisea) was “H (more than 50% control value)”. The “Test G control value” (Plasmopara viticola) was “L (50% or less control value)”, the “Test D control value” [2] was “H (more than 50% control value)” and the “Test E control value” (Puccinia recondita) was “H (more than 50% control value)”. For the same molecule, the “Test F control value” (Phytophthora infestans) was “L (50% or less control value)” and the “Test C control value” (Alternaia brassicicola) was “H (more than 50% control value)”.
C#Cc1cc(Cl)c(=O)n(CC)c1-c1ccc(F)cc1Cl [compound 302] was tested, and the “Test B control value” (Botrytis cinerea) was “H (more than 50% control value)”, the “Test H control value” [1] was “H (more than 50% control value)” and the “Test A control value” (Magnaporthe grisea) was “H (more than 50% control value)”. The “Test G control value” (Plasmopara viticola) was “L (50% or less control value)”, the “Test D control value” [2] was “L (50% or less control value)” and the “Test E control value” (Puccinia recondita) was “H (more than 50% control value)”. The “Test F control value” (Phytophthora infestans) was “L (50% or less control value)” and the “Test C control value” (Alternaia brassicicola) was “L (50% or less control value)”.
For C#Cc1cc(Cl)c(=O)n(CC)c1-c1c(F)cc(F)cc1F [compound 303], the “Test B control value” (Botrytis cinerea) was “H (more than 50% control value)”, the “Test H control value” [1] was “H (more than 50% control value)” and the “Test A control value” (Magnaporthe grisea) was “L (50% or less control value)”. For the same molecule, the “Test G control value” (Plasmopara viticola) was “L (50% or less control value)”, the “Test D control value” [2] was “H (more than 50% control value)” and the “Test E control value” (Puccinia recondita) was “H (more than 50% control value)”. The “Test F control value” (Phytophthora infestans) was “L (50% or less control value)” and the “Test C control value” (Alternaia brassicicola) was “H (more than 50% control value)”.
In the case of CC(C)Cc1cc(Cl)c(=O)n(CC(F)F)c1-c1c(F)cc(F)cc1F [compound 304], the “Test B control value” (Botrytis cinerea) was “H (more than 50% control value)”, the “Test H control value” [1] was “H (more than 50% control value)” and the “Test A control value” (Magnaporthe grisea) was “H (more than 50% control value)”. For the same molecule, the “Test G control value” (Plasmopara viticola) was “L (50% or less control value)”, the “Test D control value” [2] was “H (more than 50% control value)” and the “Test E control value” (Puccinia recondita) was “H (more than 50% control value)”. The “Test F control value” (Phytophthora infestans) was “L (50% or less control value)” and the “Test C control value” (Alternaia brassicicola) was “H (more than 50% control value)”.
For CC(C)Cc1cc(Br)c(=O)n(CC(F)F)c1-c1c(F)cc(F)cc1F [compound 305], the “Test B control value” (Botrytis cinerea) was “H (more than 50% control value)”, the “Test H control value” [1] was “H (more than 50% control value)” and the “Test A control value” (Magnaporthe grisea) was “H (more than 50% control value)”. For the same molecule, the “Test G control value” (Plasmopara viticola) was “L (50% or less control value)”, the “Test D control value” [2] was “H (more than 50% control value)” and the “Test E control value” (Puccinia recondita) was “H (more than 50% control value)”. The “Test F control value” (Phytophthora infestans) was “L (50% or less control value)” and the “Test C control value” (Alternaia brassicicola) was “H (more than 50% control value)”.
In the case of CCn1c(-c2c(F)cc(F)cc2F)c(CC(C)C)cc(C)c1=O [compound 306], the “Test B control value” (Botrytis cinerea) was “H (more than 50% control value)”, the “Test H control value” [1] was “H (more than 50% control value)” and the “Test A control value” (Magnaporthe grisea) was “H (more than 50% control value)”. The “Test G control value” (Plasmopara viticola) was “H (more than 50% control value)”, the “Test D control value” [2] was “H (more than 50% control value)” and the “Test E control value” (Puccinia recondita) was “H (more than 50% control value)”. For the same molecule, the “Test F control value” (Phytophthora infestans) was “L (50% or less control value)” and the “Test C control value” (Alternaia brassicicola) was “H (more than 50% control value)”.
For Cc1cc(CC(C)C)c(-c2c(F)cc(F)cc2F)n(CC(F)F)c1=O [compound 307], the “Test B control value” (Botrytis cinerea) was “H (more than 50% control value)”, the “Test H control value” [1] was “H (more than 50% control value)” and the “Test A control value” (Magnaporthe grisea) was “L (50% or less control value)”. For the same molecule, the “Test G control value” (Plasmopara viticola) was “L (50% or less control value)”, the “Test D control value” [2] was “H (more than 50% control value)” and the “Test E control value” (Puccinia recondita) was “H (more than 50% control value)”. The “Test F control value” (Phytophthora infestans) was “L (50% or less control value)” and the “Test C control value” (Alternaia brassicicola) was “H (more than 50% control value)”.
In the case of CCn1c(-c2c(F)cc(F)cc2F)c(COc2ccccc2)cc(Cl)c1=O [compound 308], the “Test B control value” (Botrytis cinerea) was “L (50% or less control value)”, the “Test H control value” [1] was “L (50% or less control value)” and the “Test A control value” (Magnaporthe grisea) was “H (more than 50% control value)”. For the same molecule, the “Test G control value” (Plasmopara viticola) was “L (50% or less control value)”, the “Test D control value” [2] was “L (50% or less control value)” and the “Test E control value” (Puccinia recondita) was “L (50% or less control value)”. The “Test F control value” (Phytophthora infestans) was “L (50% or less control value)” and the “Test C control value” (Alternaia brassicicola) was “H (more than 50% control value)”.
For CCn1c(-c2c(F)cc(F)cc2F)c(C(Cl)=CCl)cc(Cl)c1=O [compound 309], the “Test B control value” (Botrytis cinerea) was “H (more than 50% control value)”, the “Test H control value” [1] was “H (more than 50% control value)” and the “Test A control value” (Magnaporthe grisea) was “H (more than 50% control value)”. The “Test G control value” (Plasmopara viticola) was “H (more than 50% control value)”, the “Test D control value” [2] was “H (more than 50% control value)” and the “Test E control value” (Puccinia recondita) was “H (more than 50% control value)”. For the same molecule, the “Test F control value” (Phytophthora infestans) was “L (50% or less control value)” and the “Test C control value” (Alternaia brassicicola) was “H (more than 50% control value)”.
With CCn1c(-c2c(F)cc(F)cc2F)c(COc2ccc(OC)cc2)cc(Cl)c1=O [compound 310] the “Test B control value” (Botrytis cinerea) was “H (more than 50% control value)”, the “Test H control value” [1] was “L (50% or less control value)” and the “Test A control value” (Magnaporthe grisea) was “L (50% or less control value)”. The “Test G control value” (Plasmopara viticola) was “H (more than 50% control value)”, the “Test D control value” [2] was “L (50% or less control value)” and the “Test E control value” (Puccinia recondita) was “H (more than 50% control value)”. For the same molecule, the “Test F control value” (Phytophthora infestans) was “L (50% or less control value)” and the “Test C control value” (Alternaia brassicicola) was “H (more than 50% control value)”.
For CCn1c(-c2c(F)cc(F)cc2F)c(COc2ccc(Cl)cc2)cc(Cl)c1=O [compound 311], the “Test B control value” (Botrytis cinerea) was “L (50% or less control value)”, the “Test H control value” [1] was “L (50% or less control value)” and the “Test A control value” (Magnaporthe grisea) was “L (50% or less control value)”. For the same molecule, the “Test G control value” (Plasmopara viticola) was “L (50% or less control value)”, the “Test D control value” [2] was “L (50% or less control value)” and the “Test E control value” (Puccinia recondita) was “H (more than 50% control value)”. The “Test F control value” (Phytophthora infestans) was “L (50% or less control value)” and the “Test C control value” (Alternaia brassicicola) was “L (50% or less control value)”.
For CCC1=C(c2ccc(F)cc2Cl)N(C)C(=O)CC1 [compound 312], the “Test B control value” (Botrytis cinerea) was “L (50% or less control value)”, the “Test H control value” [1] was “L (50% or less control value)” and the “Test A control value” (Magnaporthe grisea) was “L (50% or less control value)”. For the same molecule, the “Test G control value” (Plasmopara viticola) was “L (50% or less control value)”, the “Test D control value” [2] was “L (50% or less control value)” and the “Test E control value” (Puccinia recondita) was “L (50% or less control value)”. The “Test F control value” (Phytophthora infestans) was “L (50% or less control value)” and the “Test C control value” (Alternaia brassicicola) was “H (more than 50% control value)”.
CCC1=C(c2ccc(F)cc2Cl)N(C)C(=S)CC1 [compound 313] was tested, and the “Test B control value” (Botrytis cinerea) was “L (50% or less control value)”, the “Test H control value” [1] was “L (50% or less control value)” and the “Test A control value” (Magnaporthe grisea) was “L (50% or less control value)”. The “Test G control value” (Plasmopara viticola) was “H (more than 50% control value)”, the “Test D control value” [2] was “L (50% or less control value)” and the “Test E control value” (Puccinia recondita) was “L (50% or less control value)”. For the same molecule, the “Test F control value” (Phytophthora infestans) was “L (50% or less control value)” and the “Test C control value” (Alternaia brassicicola) was “L (50% or less control value)”.
For CCc1ccc(=O)n(C)c1-c1ccc(F)cc1Cl [compound 314], the “Test B control value” (Botrytis cinerea) was “L (50% or less control value)”, the “Test H control value” [1] was “L (50% or less control value)” and the “Test A control value” (Magnaporthe grisea) was “L (50% or less control value)”. For the same molecule, the “Test G control value” (Plasmopara viticola) was “L (50% or less control value)”, the “Test D control value” [2] was “H (more than 50% control value)” and the “Test E control value” (Puccinia recondita) was “H (more than 50% control value)”. The “Test F control value” (Phytophthora infestans) was “L (50% or less control value)” and the “Test C control value” (Alternaia brassicicola) was “L (50% or less control value)”.
With CCCC1=C(c2ccc(F)cc2Cl)N(CC)C(=S)CC1 [compound 315] the “Test B control value” (Botrytis cinerea) was “L (50% or less control value)”, the “Test H control value” [1] was “L (50% or less control value)” and the “Test A control value” (Magnaporthe grisea) was “L (50% or less control value)”. For the same molecule, the “Test G control value” (Plasmopara viticola) was “L (50% or less control value)”, the “Test D control value” [2] was “H (more than 50% control value)” and the “Test E control value” (Puccinia recondita) was “L (50% or less control value)”. The “Test F control value” (Phytophthora infestans) was “L (50% or less control value)” and the “Test C control value” (Alternaia brassicicola) was “L (50% or less control value)”.
CCc1cc(Cl)c(=O)n(C)c1-c1ccc(F)cc1Cl [compound 316] was tested, and the “Test B control value” (Botrytis cinerea) was “H (more than 50% control value)”, the “Test H control value” [1] was “H (more than 50% control value)” and the “Test A control value” (Magnaporthe grisea) was “L (50% or less control value)”. For the same molecule, the “Test G control value” (Plasmopara viticola) was “H (more than 50% control value)”, the “Test D control value” [2] was “L (50% or less control value)” and the “Test E control value” (Puccinia recondita) was “H (more than 50% control value)”. The “Test F control value” (Phytophthora infestans) was “H (more than 50% control value)” and the “Test C control value” (Alternaia brassicicola) was “H (more than 50% control value)”.
For CCc1cc(Br)c(=O)n(C)c1-c1ccc(F)cc1Cl [compound 317], the “Test B control value” (Botrytis cinerea) was “H (more than 50% control value)”, the “Test H control value” [1] was “H (more than 50% control value)” and the “Test A control value” (Magnaporthe grisea) was “L (50% or less control value)”. The “Test G control value” (Plasmopara viticola) was “H (more than 50% control value)”, the “Test D control value” [2] was “L (50% or less control value)” and the “Test E control value” (Puccinia recondita) was “H (more than 50% control value)”. For the same molecule, the “Test F control value” (Phytophthora infestans) was “H (more than 50% control value)” and the “Test C control value” (Alternaia brassicicola) was “H (more than 50% control value)”.
